# In US20210290644A1, “COMPOUNDS AND METHODS FOR TREATING FUNGAL INFECTIONS” (Amplyx Pharmaceuticals, Inc., priority 2018, published 2021):
# Entries after “also recorded” stand apart in the source; their conditions may differ. Like-named read-outs stand apart in the source and are kept apart here.
# Key:
# [1] = Compound 1 pH solubility at room temperature; type: physicochemical
# [2] = pH stability of Compound 1 in buffer solutions stored at 40° C.; type: physicochemical; conditions: buffer solutions pH 7-8, stored at 40° C., up to seven days
# Method: The pH stability in buffer solutions were also evaluated for pH levels 7, 8, and 9 when stored at 40° C.
# [3] = system: Candida (C. albicans, C. glabrata, or C. auris); assay: PK-PD studies in immunocompromised mice infected with Candida (fungal burden, CFUs in the kidney); type: in vivo; conditions: dose fractionations
# Method: In PK-PD studies, immunocompromised mice were infected with one of three spp. of Candida (C. albicans, C. glabrata, or C. auris) and groups of animals were dosed with Compound 1 at different dose fractionations. […] The stasis endpoint was defined as the quantity of Candida spp. in CFUs just prior to Compound 1 administration compared to CFUs at the endpoint of assessment (i.e., 24 hours for C. albicans; 96 hours for C. glabrata and C. auris).
# In pharmacokinetic/pharmacodynamic (PK-PD) studies, immunocompromised mice were infected with one of three spp. of Candida (C. albicans, C. glabrata, or C. auris) and groups of animals were dosed with Compound 1 at different dose fractionations.
# [4] = Binary excipient compatibility study of Compound 1; type: physicochemical; conditions: binary mixtures, after 3 weeks at either storage condition
# Method: For each excipient screened, there were […] (5° C., room temperature, 40° C./75% RH, 50° C.) that could be pulled at 3 weeks or 4 weeks as shown in Table 85. For contingency, one vial was stored at each condition per excipient. At each time point, an appropriate active sample control vial from each condition was reconstituted and analyzed in addition to the compatibility samples.
# [5] = Compound 1 Injection 20 mg/mL batch analysis and stability (appearance, HPLC assay, related substances, pH, particulate matter); type: physicochemical; conditions: 72-hour stability data at 20 mg/mL
# Method: The HPLC method used in the stability studies for Compound 1 Injections, 20 mg/mL is a specific and stability-indicating method used for the determination of assay, related substances, content uniformity, identification, and absence of Compound 1 in Compound 1 Injection at 20 mg/mL. The method is a gradient reverse phase HPLC system to measure assay, purity, and related substances. The assay (% w/w) is determined by comparing the peak response of the sample to that of a standard. The same HPLC method used for purity and related substances is used to measure related substances. Related substances to Compound 1 drug substance are reported as area percent. The area of an impurity is divided by the total area of all sample-related peaks. Related substances are reported by retention time relative to the parent peak (RRT).
# Compound 1 Injection, 20 mg/mL, was prepared as a non-buffered solution suitable for Phase 1 clinical studies containing Compound 1, sodium chloride, and pH adjustment using hydrochloric acid and/or sodium hydroxide to pH 7.5. […] Samples have been analyzed for appearance, assay, related substance, and pH. Compound 1 Injection, engineering batch #707 manufactured under GMP was placed on an ICH stability program at 5° C. and 25° C./60% RH. Samples have been analyzed for appearance, assay, related substance, particulate matter, and pH. […]
# [6] = Additional Phase 1 study of Compound 1: IV loading, IV maintenance, then oral through Day 42, safety; type: in vivo, human; conditions: 1000 mg IV 3-hour BID Day 1, 600 mg IV 3-hour QD Days 2-7, 800 mg orally QD Days 8-42
# [7] = in vivo
# Description: This was a Phase 1, first-in-human, randomized, double-blind, placebo-controlled single ascending dose (SAD) and multiple ascending dose (MAD) escalation study of 120 healthy male and female subjects. The objectives of the study were to evaluate the safety, tolerability, and pharmacokinetics of single and multiple doses of Compound 1 administered by intravenous (IV) infusion.
# (§1) In the single ascending dose (SAD) phase, Cohorts 1 to 6 and 11A to 11D received single doses. For Cohorts 11A to 11D, the infusion time varied from 0.5 to 3 hours to evaluate the relationship between C., and tolerability. In the multiple ascending dose (MAD) phase, Cohorts 7 to 10 received multiple doses over 14 days, and Cohort 12 examined the feasibility of a loading dose regimen.
# Blood samples for the determination of Compound 1 and Compound 1A plasma concentrations were collected before and at appropriate times during all single- and multiple-dose administrations of Compound 1. For SAD Cohorts 1 to 6, urine samples for the determination of Compound 1A were collected through 48 hrs after dosing.
# Eighty (80) subjects were enrolled into SAD Cohorts 1 to 6 and 11A to 11D. Within each cohort, six subjects were randomized to Compound 1 and two subjects to placebo. All 60 subjects randomized to Compound 1 completed dosing. Fifty-nine (59) subjects completed the study.
# Forty (40) subjects were enrolled into MAD Cohorts 7 to 10 and Loading Dose Cohort 12. Within each cohort, six subjects were randomized to Compound 1 and two subjects to placebo.
# The PK analysis population therefore consisted of 60 subjects in the SAD phase and 28 subjects in the MAD phase.
# [8] = Study #1 Phase 1: safety and tolerability (TEAEs) of IV Compound 1
# Method: This was a Phase 1, first-in-human, randomized, double-blind, placebo-controlled single ascending dose (SAD) and multiple ascending dose (MAD) escalation study of 120 healthy male and female subjects.
# as §1
# [9] = Study #2 Phase 1: pharmacokinetics after single IV and single/multiple oral doses of Compound 1, absolute oral bioavailability; conditions: Cohort 1A, Period A, 200 mg IV;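 further: phase 1 study design: one IV dose, then escalating single oral doses, fed versus fasted single oral dosing, and once-daily oral dosing over 14 days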
# Description: In the single ascending dose (SAD) phase, subjects in Cohort 1a received a single IV dose in Period A and then rising single oral doses in Periods B to D. Subjects in Cohort 1b received a single oral dose under fed and fasted conditions in Periods E and F. Subjects in Cohorts 2 and 3 received once-daily oral doses for 14 days, as did subjects in Cohort 4 as part of an in vivo screen for drug-drug interaction (DDI) potential.
# For SAD Cohorts 1a and 1b, urine samples for the determination of Compound 1A were collected through 48 hrs after dosing.
# Forty-six (46) subjects were enrolled into the study, 8 in Cohort 1a, 10 in Cohort 1b, and 8 each in Cohorts 2 and 3.
# [10] = 100 mg sd oral treatment period
# [11] = 300 mg sd oral treatment period
# [12] = 500 mg sd oral treatment period
# [13] = 1000 mg/0.5 hr IV single dose group
# [14] = 1000 mg/1 hr IV single dose group
# [15] = 1000 mg/2 hr IV single dose group
# [16] = 1000 mg/3 hr IV single dose group
# [17] = Cohort 12 loading dose regimen (1000 mg IV 2-hour twice on Day 1 + 600 mg IV 1-hr QD Days 2-7)
structure (smiles),measurement,setting,value
Nc1c(-c2cc(Cc3ccc(COc4ccccn4)cc3)no2)ccc[n+]1COP(=O)([O-])O [Compound 1],solubility,"[1]; 50 mM phosphate buffer, pH 7.5, aqueous buffer, Study B, pH 7.5 (50 mM phosphate buffer)",141000 µg/mL
same,solubility,"[1]; pH 1, simulated gastric fluid, Study A, pH 1",3830 µg/mL
same,solubility,"[1]; pH 3, aqueous buffer, Study A, pH 3",111 µg/mL
same,solubility,"[1]; pH 4, aqueous buffer, Study A, pH 4",63 µg/mL
same,solubility,"[1]; pH 5, aqueous buffer, Study A, pH 5",125 µg/mL
same,solubility,"[1]; pH 6, aqueous buffer, Study A, pH 6",758 µg/mL
same,solubility,"[1]; pH 6.5, aqueous buffer, Study B, pH 6.5",4300 µg/mL
same,solubility,"[1]; pH 7, aqueous buffer, Study A, pH 7, saturation not achieved",> 17600 µg/mL
same,solubility,"[1]; pH 7, aqueous buffer, Study B, pH 7.0",53700 µg/mL
same,solubility,"[1]; pH 7.5, aqueous buffer, Study A, pH 7.5, saturation not achieved",> 28500 µg/mL
same,solubility,"[1]; pH 8.5, aqueous buffer, Study A, pH 8.5, saturation not achieved",> 80000 µg/mL
same,solubility,"[1]; phosphate buffer, pH 7, aqueous buffer, Study B, pH 7.0 (with phosphate buffer)",20900 µg/mL
same,change in potency,[2],< 3%
same,"PK-PD variable that best correlated with antifungal efficacy (fungal burden, CFUs in the kidney)",[3],AUC/MIC ratio
same,compatibility with excipients (total purity profile),[4],compatible with the tested excipients
same,degradation,[5],< 0.10%
same,safety and tolerability,[6],safe and well tolerated
same,exposures to the prodrug relative to those of the active Compound 1A,"[7]; both, human, iv",< 5%
same,time after start of infusion by which prodrug concentrations are <LOQ,"[7]; both, human, iv",at most 8 hrs
same,accumulation of prodrug following multiple dosing,[7],essentially no accumulation
same,number of TEAEs,[10],2 TEAEs
same,subjects reporting TEAEs,[10],33%
same,number of TEAEs,200 mg sd IV treatment period,3 TEAEs
same,subjects reporting TEAEs,200 mg sd IV treatment period,50%
same,number of TEAEs,[11],6 TEAEs
same,subjects reporting TEAEs,[11],50%
same,number of TEAEs,500 mg md oral group,24 TEAEs
same,subjects reporting TEAEs,500 mg md oral group,83%
same,number of TEAEs,[12],1 TEAE
same,subjects reporting TEAEs,[12],17%
same,safety and tolerability,1000 mg PO QD on Days 1 through 14,safe and well tolerated
same,number of TEAEs,1000 mg md oral group,119 TEAEs
same,subjects reporting TEAEs,1000 mg md oral group,100%
same,deaths or SAEs,Study #2,no deaths or SAEs reported
same,dose-limiting toxicities (DLTs),Study #2,No DLTs were observed
same,maximum tolerated dose (MTD),Study #2,not determined/reached
same,safety and tolerability,all doses in Study #2,safe and well tolerated
same,tolerability,multiple oral doses of 500 mg and 1000 mg once daily for 14 consecutive days,well tolerated by the majority of subjects
same,tolerability,single IV doses of 200 mg and single oral doses 100 mg to 500 mg,well tolerated
same,effect of dosing under fed conditions on tolerability,"single-dose crossover food effect cohort, TEAEs related to Gastrointestinal and Nervous System Disorders",improve tolerability
same,number of TEAEs,[8]; [13],21 TEAEs
same,subjects reporting TEAEs,[8]; [13],100%
same,number of TEAEs,[8]; [14],25 TEAEs
same,subjects reporting TEAEs,[8]; [14],100%
same,number of TEAEs,[8]; [15],22 TEAEs
same,subjects reporting TEAEs,[8]; [15],100%
same,number of TEAEs,[8]; [16],13 TEAEs
same,subjects reporting TEAEs,[8]; [16],83%
same,number of TEAEs,[8]; [17],38 TEAEs
same,subjects reporting TEAEs,[8]; [17],100%
same,maximum tolerated dose (MTD),[8]; Study #1 and Study #2,not determined/not reached
same,severe TEAEs or SAEs,[8]; Study #1 and Study #2,no severe or very severe TEAEs or SAEs reported
same,dose-limiting toxicities,[8]; Study #1 and Study #2 (two Phase 1 studies),no dose-limiting toxicities observed; also recorded: No DLTs were observed
same,tolerability,"[8]; all single and multiple IV and oral doses, Study #1 and Study #2",well tolerated
same,safety and tolerability,"[8]; faster infusions (single dose: 2, 1 and 0.5 hrs; multiple dose: 1 hr)",safe and well tolerated
same,safety and tolerability,"[8]; loading dose 1000 mg IV twice on Day 1 (2-hr infusion), maintenance 600 mg QD",safe and well tolerated
same,tolerability,[8]; multiple IV doses up to 600 mg once daily for 14 consecutive days,well tolerated by the majority of subjects
same,tolerability,"[8]; single IV doses up to 350 mg over 3 hours and 1000 mg over 0.5-, 1-, 2-, 3-hour infusions",well tolerated
same,time after IV infusion through which prodrug plasma concentrations were ≥LOQ,[9],≤ 4 h
